Source: publication PMC6010070, “Antinociceptive potency of a fluorinated cyclopeptide Dmt-c[D-Lys-Phe-p-CF3-Phe-Asp]NH2” (Journal of Enzyme Inhibition and Medicinal Chemistry, 2018)
Read-outs that look alike come from different tables or passages of the source. Bridge positions count the residues as written; N and C are the ends. Square brackets hold non-standard residues; d marks the D form. Peptide text beside a SMILES is read from it. Phe(4-CF3) = N[C@@H](Cc1ccc(C(F)(F)F)cc1)C(=O)O; Dmt = Cc1cc(O)cc(C)c1C[C@H](N)C(=O)O

Legend:
Kinetic solubility assay = type: physicochemical; conditions: PBS buffer, pH 7.4
Procedure: Kinetic solubility assay was performed using Multiscreen HTS Vacuum Manifold (Merck Millipore, Warsaw, Poland). Compounds for this test were prepared as 10 mM stock solutions in DMSO and diluted in a standard PBS buffer (pH = 7.4), to the final concentrations of 0.5 mM. The solutions were applied into a 96-well filter plate and incubated for 90 min at room temperature, while shaking at 40 g and then filtrated. The concentration of each compound was determined on the basis of the prepared calibration curve using the UV–VIS spectrophotometric method. According to the absorption spectra of the compounds the wavelength used for the measurements was 280 nm for both, C-36 and F-81.

[1] = for BBB permeability Pe ± SD: brain polar lipid extract, 200 µM, 4 h, room temperature; for Classification (BBB permeation): classified by Pe
Procedure: Parallel Artificial Membrane Permeability Assay (PAMPA) was performed using Multiscreen Filter Plate and Multiscreen Transport Receiver Plate (Merck Millipore, Warsaw, Poland). Tested, as well as reference compounds, were dissolved in 0.1 M PBS buffer containing 20% of ethanol, to the final concentration of 200 µM. A 300 µl aliquots of 0.1 M PBS solution (pH = 7.4) was dispensed into the wells of the […]. Then 1% n-dodecane solution of the brain polar lipid extract (Avanti Polar Lipids; Sigma Aldrich, Poznan, Poland) was prepared to investigate the blood–brain barrier (BBB) permeability. Aliquots of the obtained lipid solutions (5 µl) were dispensed on the membranes of wells of the donor plate and left to dry. […] A complete system, consisting of the receiver plate with inserted donor plate, was incubated at room temperature for 4 h, shaking at 40 g, to guarantee good solvent mixing.
The ability of the tested compounds to permeate the artificial membranes was classified according to the literature[33] as:
Artificial membrane permeability was assessed in the PAMPA assay and the permeability coefficient (Pe) was calculated from the following equation: Pe=C×-ln1-×Ca/Cr where C=Vd ×Va /(Vd+Va)×p×t
Membrane retention was analysed using mass balance between a compound left in the donor and acceptor compartments and calculated using the following equation: MB=Ca×Va+(Cd×Vd)/Cinitial×Vd where

Male CD-1 mice = assay: Hot-plate test after i.c.v. administration; type: in vivo; conditions: for ED50 (jumping response): mice
Description: Male CD-1 mice (Harlan, Italy) weighing 25–30 g were used to determine the anti-nociceptive activity of the cyclopeptides in the hot-plate test after i.c.v. injection. Animal studies and research protocols were approved by the Service for Biotechnology and Animal Welfare of the Istituto Superiore di Sanità and authorized by the Italian Ministry of Health, according to Legislative Decree 26/14 (protocol number: 198/2013-B, 14 August 2013), which implemented the European Directive 2010/63/EEC on laboratory animal protection. Animal welfare was routinely checked by veterinarians from the Service for Biotechnology and Animal Welfare.
The hot-plate test was performed as described earlier. The intracerebroventricular (i.c.v.) injections were performed in a volume of 10 µl/animal, in the left brain ventricle of manually immobilized mice with a Hamilton microsyringe (50 µl) connected to a needle (diameter 0.5 mm). Peptides were also administrated in mice intravenously (i.v.) in a volume of 1 ml/kg. All compounds used for i.c.v. and i.v. administration were dissolved in saline. A transparent plastic cylinder (14 cm diameter, 31 cm height) was used to confine the mouse on the heated (55 ± 0.5 °C) surface of the plate. The animals were placed on the hot plate 5 min after the i.c.v. injection of saline (control) or peptides and the latencies to paw licking, rearing and jumping were measured at 5, 10, 20, 30, 45, 60, 90, and 120 min after administration of a peptide. A cut-off time of 240 s was used to avoid tissue injury. The percentage of the maximal possible effect (%MPE) was calculated as: %MPE = (t1 − t0)/(t2 − t0) × 100, where t0: control latency, t1: test latency, and t2: cut-off time. The median antinociceptive dose (ED50) was calculated according to the method of Litchfield and Wilcox[36].

Male balb/c mice [2] = assay: Prevention mouse model of TNBS-induced colitis (macroscopic damage, MPO activity); type: in vivo; conditions: 1 mg/kg i.p. once daily
Procedure: (§1) Male balb/c mice (Animal Facility of Nofer Institute of Occupational Medicine, Lodz, Poland) weighing 22–25 g were used to determine the anti-inflammatory and anti-nociceptive activity of cyclopeptides after i.p. administration. All procedures and protocols used in this study were approved by the Local Ethical Committee for Animal Research (protocol number: 20/ŁB708/2014, 26 May 2014). The study was carried out in accordance with the recommendations described in the Guide for the Care and Use of Laboratory Animals of the Medical University of Lodz, Poland. All experimental procedures were performed in accordance with the current guidelines for the care of laboratory animals (including the use of the 3Rs procedures) and in accordance with the ARRIVE guidelines.
(§2) The experimental colitis was induced by intracolonic (i.c.) administration of 2,4,6-trinitrobenzenesulfonic acid (TNBS). Mice were anesthetized with isoflurane (Aerrane, Baxter, Deerfield, IL) and TNBS at the dose of 4 mg per mouse (dissolved in 30% EtOH in saline) in the final volume of 150 µl, was injected into the colon through a catheter inserted 3 cm proximally from the anus. Mice were then maintained in an inclined position for 1 min to ensure the proper distribution of the inductor in the colon. Next, recovery was allowed with food and water supplied. Control animals received vehicle alone (30% ethanol in saline; TNBS replaced with equivolume water).
In the prevention mouse model of colitis, F-81 was injected intraperitoneally (i.p.) at the dose of 1 mg/kg in saline, in the volume of 100 µl, once daily, for 3 days, 15 min prior to TNBS administration. Mice were weighted daily and monitored for clinical symptoms of colitis, including diarrhoea and bloody stool. On day 4, mice were sacrificed by rapid cervical dislocation and the macroscopic damage score was assessed.
(§3) To perform the macroscopic damage score, the colon was removed immediately after euthanasia, opened longitudinally, rinsed with phosphate buffered saline (PBS), and examined using an established semiquantitative scoring system by adding individual scores for ulcer, colonic shortening, wall thickness, and the presence of haemorrhage, faecal blood, and diarrhoea, as described before. For scoring ulcer and colonic shortening the following scale was used: ulcer: 0.5 points for each 0.5 cm; shortening of the colon: 1 point for >15%, 2 points for >25% (based on a mean length of the colon in untreated mice). The wall thickness was measured in millimetres, a thickness of n mm corresponded to n scoring points. The presence of haemorrhage, faecal blood, or diarrhoea increased the score by 1 point for each additional feature.
(§4) The colon fragments (20–30 mg) were gently isolated from mice after total macroscopic damage score assessment, immediately washed with PBS, and homogenized in hexadecyltrimethylammonium bromide (HTAB) buffer (0.5% HTAB in 50 mM potassium phosphate buffer, pH 6.0; 50 mg of tissue/ml) using Ika Ultra Turrax Disperser T25 Digital 2 (Sigma Aldrich, Poznan, Poland). The homogenates were centrifuged (20 min, 13,200g, 4 °C) and the supernatants were transferred to the new test tubes. Then, 7 µl portions of supernatants were added on a 96-well plate, followed by 200 µl of 50 mM potassium phosphate buffer (pH = 6.0), containing 0.167 mg/ml of O-dianisidine hydrochloride and 0.05 µl of 1% H2O2. The absorbance was measured at 450 nm after 30 and 60 s (iMARK Microplate Reader, Biorad, UK). All measurements were done in triplicates.
(§5) The MPO activity was expressed in units/g of a wet tissue. One unit is determined as a quantity of enzyme able to convert 1 µmol of H2O2 to water in 1 min at room temperature. MPO activity units were calculated from the standard curve using purified peroxidase enzyme.

Male balb/c mice [3] = assay: Semi-chronic model of TNBS-induced colitis (macroscopic damage, MPO activity); type: in vivo
Procedure: as §1, §2
In the semi-chronic model, the curative potential of F-81 was tested. TNBS was administered on day 0 and from day 3 to day 6 the F-81 treatment (1 mg/kg in saline, 100 µl, i.p) was performed. On day 7, mice were sacrificed and the evaluation of colonic damage was performed.
as §3
as §4, with “Then, 7 µl portions of supernatants were added on a 96-well plate, followed by 200 µl of 50 mM potassium phosphate buffer (pH = 6.0), containing 0.167 mg/ml of O-dianisidine hydrochloride and 0.05 µl of 1% H2O2.” left out, “All measurements were done in triplicates.” left out
as §5

Male balb/c mice [4] = assay: Histology, microscopic total damage score of distal colon (prevention model of colitis); type: in vivo; conditions: 1 mg/kg
Procedure: Distal colon sections from the preventive mouse model of colitis were stapled flat, mucosal side-up, onto cardboard strips and fixed in 10% formalin for 24 h at 4 °C. Samples were dehydrated, embedded in paraffin, sectioned at 5 µm, and mounted onto slides. The sections were then stained with haematoxylin and eosin and Motic AE31 microscope (Ted Pella, Sweden) photographs were taken using a digital imaging system consisting of a digital camera (Moticam 2300, Ted Pella, Sweden) and image analysis software (Motic Images Plus 2.0, Germany).
The microscopic total damage score was assessed using the following parameters: the goblet cell depletion (presence = 1, absence = 0), crypt abscesses (presence = 1, absence = 0), the destruction of mucosal architecture (normal = 1, moderate = 2, extensive = 3), the extent of muscle thickening (normal =1, moderate = 2, extensive = 3), and the presence and degree of cellular infiltration (normal = 1, moderate = 2, transmural = 3).

Male balb/c mice [5] = assay: Mustard oil induced abdominal pain in mice with acute TNBS-induced colitis; type: in vivo; conditions: mustard oil i.c., 1 mg/kg i.p., counted for 20 min, control group 29.28 ± 2.52
Procedure: as §1
To assess the anti-nociceptive effect of F-81 in mice with acute colitis, intestinal inflammation was induced by TNBS instillation three days prior to the experiment. Abdominal pain was induced in inflamed mice by the i.c. injection of 1% mustard oil (MO, allyl isothiocyanate) in 70% EtOH in saline. Mice were separated into clear plastic boxes (20 × 20 × 15 cm) and allowed a 5 min recovery after MO administration. Spontaneous behaviours (licking and stretching the abdomen, squashing of lower abdomen against the floor, and abdominal retraction) were observed and counted for 20 min.

kappa-opioid receptor = system: kappa-opioid receptor; parameters: method as in PMID 26005537, PMID 25047937; conditions: cited from earlier work
[6] = parameters: method as in PMID 19995587; conditions: i.v. ref 35; cited from earlier work
[7] = read-out: Solubility Mean (mg/ml)

## Cc1cc(O)cc(C)c1C[C@H](N)C(=O)N[C@@H]1CCCCNC(=O)C[C@@H](C(N)=O)NC(=O)[C@H](Cc2ccc(C(F)(F)F)cc2)NC(=O)[C@H](Cc2ccccc2)NC1=O [Peptide F-81, Dmt-c[D-Lys-Phe-p-CF3-Phe-Asp]NH2] (H-[Dmt][dK]F[Phe(4-CF3)]D-NH2; lactam 2-5 (inferred))
Kinetic solubility assay; read-out: Solubility Mean
  solubility at 90 min: 345 µM
Kinetic solubility assay; [7]
  solubility at 90 min: 0.27 mg/mL
[1]; PAMPA, pH 7.4
  BBB permeability Pe ± SD: ≤0.58
[1]; PAMPA-BBB
  Classification (BBB permeation): Low permeation (Pe < 2.0 – low permeation)
[1]; PAMPA-BBB, membrane retention
  Mean (%) Mass balance ± SD: 95.75 ± 1.43%
Male CD-1 mice; F-81 10 ng/animal i.c.v., NTL 1 µg/animal
  Anti-nociceptive effect with co-administered naltrindole (delta antagonist): did not modify
Male CD-1 mice; F-81 10 ng/animal i.c.v., nor-BNI 5 µg/animal i.c.v.
  Anti-nociceptive effect with co-administered norbinaltorphimine (kappa antagonist): did not modify
Male CD-1 mice; F-81 10 ng/animal i.c.v., β-FNA 1 µg/animal
  Anti-nociceptive effect with co-administered β-funaltrexamine (mu antagonist): blocked
Male CD-1 mice; hot-plate test, i.c.v., from the ED50 values
  Anti-nociceptive potency relative to C-36: approximately threefold
Male CD-1 mice; hot-plate test, i.c.v.
  ED50 (jumping response): 17.27 ng
Male balb/c mice [2]; 3 days, TNBS group 5.83
  Macroscopic damage score: 4.07
Male balb/c mice [2]; TNBS group 1.08 ± 0.12, no difference
  Intestinal wall thickness: 0.95 ± 0.07 mm
Male balb/c mice [2]; TNBS group 2.06 ± 0.22
  Ulcer score: 1.43 ± 0.17
Male balb/c mice [2]; TNBS group 7.91 ± 0.23
  Colon width: 6.09 ± 0.53
Male balb/c mice [2]; TNBS group 8.01 ± 0.39, no difference
  Colon length: 8.23 ± 0.24
Male balb/c mice [2]; TNBS group 24.42 ± 2.92
  Inflammation area: 19.56 ± 2.16
Male balb/c mice [2]; colon tissue, TNBS group 11.82 ± 1.72
  MPO activity: 3.65 ± 0.87 units/g of a wet tissue
Male balb/c mice [3]; 1 mg/kg i.p.
  Colon thickness, width, or length versus TNBS-treated group: No differences
Male balb/c mice [3]; 1 mg/kg i.p. day 3 to day 6, TNBS group 4.15 ± 0.54
  Macroscopic damage score: 2.18 ± 0.40
Male balb/c mice [3]; 1 mg/kg i.p., TNBS group 1.30 ± 0.12
  Ulcer score: 0.92 ± 0.83
Male balb/c mice [3]; 1 mg/kg i.p., TNBS group 18.49 ± 3.95
  Inflammation area: 12.23 ± 1.56
Male balb/c mice [3]; colon tissue, 1 mg/kg i.p., TNBS group 8.26 ± 0.15
  MPO activity: 7.88 ± 0.24 units/g of a wet tissue
Male balb/c mice [4]
  Microscopic score: significantly improved
Male balb/c mice [5]
  Number of spontaneous pain behaviours: 6.36 ± 1.98
kappa-opioid receptor
  kappa-affinity: significant kappa-affinity

## Cn1c(=O)c2[nH]cnc2n(C)c1=O [Theophylline, theophylline, reference compound]
[1]; PAMPA, pH 7.4
  Mean (%) Mass balance ± SD: 98.21 ± 3.65%

## Cc1cc(O)cc(C)c1C[C@H](N)C(=O)N[C@@H]1CCCCNC(=O)C[C@@H](C(N)=O)NC(=O)[C@H](Cc2ccccc2)NC(=O)[C@H](Cc2ccccc2)NC1=O [Peptide C-36, Dmt-c[D-Lys-Phe-Phe-Asp]NH2] (H-[Dmt][dK]FFD-NH2; lactam 2-5; N-terminus assumed)
Kinetic solubility assay; read-out: Solubility Mean
  solubility at 90 min: ≥ 500 µM
Kinetic solubility assay; [7]
  solubility at 90 min: ≥ 0.36 mg/mL
[1]; PAMPA, pH 7.4
  BBB permeability Pe ± SD: ≤0.58
[1]; PAMPA-BBB
  Classification (BBB permeation): Low permeation (Pe < 2.0 – low permeation)
[1]; PAMPA-BBB, membrane retention
  Mean (%) Mass balance ± SD: 97.87 ± 1.69%
Male CD-1 mice; hot-plate test, i.c.v.
  ED50 (jumping response): 57.78 ng

## Tyr-c[D-Lys-Phe-Phe-Asp]NH2
[6]
  Ability to reach the brain after i.v. administration: could reach the brain after i.v. administration
